From US11866450B2, “Modulators of Cystic Fibrosis Transmembrane Conductance regulator, pharmaceutical compositions, methods of treatment, and process for making the modulators” (priority 2018, dated 2024)

Molecular target: CFTR-mediated chloride transport (Homo sapiens, UniProt P13569)
Type: cell-based
Conditions: enteroid cells incubated with test compound 18-24 hours, acute 10 μM forskolin and 300 nM Compound III; for Max. Activity: % of chloride transport with 3 μM Compound A, 3 μM Compound II and 300 nM acute Compound III triple combination control
Protocol: Base medium (ADF+++) consisted of Advanced DMEM/Ham's F12, 2 mM Glutamax, 10 mM HEPES, […] penicillin/streptomycin.
Intestinal enteroid maintenance medium (IEMM) consisted of ADF+++, 1× B27 supplement, 1× N2 supplement, 1.25 mM N-acetyl cysteine, 10 mM Nicotinamide, 50 ng/mL hEGF, 10 nM Gastrin, 1 μg/mL hR-spondin-1, 100 ng/mL hNoggin, TGF-b type 1 inhibitor A-83-01, 100 μg/mL Primocin, 10 μM P38 MAPK inhibitor SB202190.
Bath 1 Buffer consisted of 1 mM MgCl2, 160 mM NaCl, 4.5 mM KCl, 10 mM HEPES, 10 mM Glucose, 2 mM CaCl2).
Chloride Free Buffer consisted of 1 mM Magnesium Gluconate, 2 mM Calcium Gluconate, 4.5 mM Potassium Gluconate, 160 mM Sodium Gluconate, 10 mM HEPES, 10 mM Glucose.
Bath1 Dye Solution consisted of Bath 1 Buffer, 0.04% Pluronic F127, 20 μM Methyl Oxonol, 30 μM CaCCinh-A01, 30 μM Chicago Sky Blue.
Chloride Free Dye Solution consisted of Chloride Free Buffer, 0.04% Pluronic F127, 20 μM Methyl Oxonol, 30 μM CaCCinh-A01, 30 μM Chicago Sky Blue.
Chloride Free Dye Stimulation Solution consisted of Chloride Free Dye Solution, 10 μM forskolin, 100 μM IBMX, and 300 nM Compound III.
Human intestinal epithelial enteroid cells were obtained from the Hubrecht Institute for Developmental Biology and Stem Cell Research, Utrecht, The Netherlands and expanded in T-Flasks as previously described (Dekkers J F, Wiegerinck C L, de Jonge H R, Bronsveld I, Janssens H M, de Winter-de Groot K M, Brandsma A M, de Jong N W M, Bijvelds M J C, Scholte B J, Nieuwenhuis E E S, van den Brink S, Clevers H, van der Ent C K, Middendorp S and M Beekman J M. A functional CFTR assay using primary cystic fibrosis intestinal organoids. Nat Med. 2013 July; 19(7):939-45).
Cells were recovered in cell recovery solution, collected by centrifugation at 650 rpm for 5 min at 4° C., resuspended in TryPLE and incubated for 5 min at 37° C. Cells were then collected by centrifugation at 650 rpm for 5 min at 4° C. and resuspended in IEMM containing 10 μM ROCK inhibitor (RI) (trans-4-[(1R)-1-aminoethyl]-N-4-pyridinylcyclohexanecarboxamide). The cell suspension was passed through a 40 μm cell strainer and resuspended at 1×10^6 cells/mL in IEMM containing 10 μM RI. Cells were seeded at 5000 cells/well into multi-well plates and incubated for overnight at 37° C., 95% humidity and 5% CO2 prior to assay.
Enteroid cells were incubated with test compound in IEMM for 18-24 hours at 37° C., 95% humidity and 5% CO2. Following compound incubations, a membrane potential dye assay was employed using a FLIPR Tetra to directly measure the potency and efficacy of the test compound on CFTR-mediated chloride transport following acute addition of 10 μM forskolin and 300 nM Compound III. Briefly, cells were washed 5 times in Bath 1 Buffer. Bath 1 Dye Solution was added and the cells were incubated for 25 min at room temperature. Following dye incubation, cells were washed 3 times in Chloride Free Dye Solution. Chloride transport was initiated by addition of Chloride Free Dye Stimulation Solution and the fluorescence signal was read for 15 min. The CFTR-mediated chloride transport for each condition was determined from the AUC of the fluorescence response to acute forskolin and 300 nM Compound III stimulation. Chloride transport was then expressed as a percentage of the chloride transport following treatment with 3 μM Compound A, 3 μM Compound II and 300 nM acute Compound III triple combination control (% Activity).

Sequence of CFTR-mediated chloride transport (P13569 whole entry, looked up): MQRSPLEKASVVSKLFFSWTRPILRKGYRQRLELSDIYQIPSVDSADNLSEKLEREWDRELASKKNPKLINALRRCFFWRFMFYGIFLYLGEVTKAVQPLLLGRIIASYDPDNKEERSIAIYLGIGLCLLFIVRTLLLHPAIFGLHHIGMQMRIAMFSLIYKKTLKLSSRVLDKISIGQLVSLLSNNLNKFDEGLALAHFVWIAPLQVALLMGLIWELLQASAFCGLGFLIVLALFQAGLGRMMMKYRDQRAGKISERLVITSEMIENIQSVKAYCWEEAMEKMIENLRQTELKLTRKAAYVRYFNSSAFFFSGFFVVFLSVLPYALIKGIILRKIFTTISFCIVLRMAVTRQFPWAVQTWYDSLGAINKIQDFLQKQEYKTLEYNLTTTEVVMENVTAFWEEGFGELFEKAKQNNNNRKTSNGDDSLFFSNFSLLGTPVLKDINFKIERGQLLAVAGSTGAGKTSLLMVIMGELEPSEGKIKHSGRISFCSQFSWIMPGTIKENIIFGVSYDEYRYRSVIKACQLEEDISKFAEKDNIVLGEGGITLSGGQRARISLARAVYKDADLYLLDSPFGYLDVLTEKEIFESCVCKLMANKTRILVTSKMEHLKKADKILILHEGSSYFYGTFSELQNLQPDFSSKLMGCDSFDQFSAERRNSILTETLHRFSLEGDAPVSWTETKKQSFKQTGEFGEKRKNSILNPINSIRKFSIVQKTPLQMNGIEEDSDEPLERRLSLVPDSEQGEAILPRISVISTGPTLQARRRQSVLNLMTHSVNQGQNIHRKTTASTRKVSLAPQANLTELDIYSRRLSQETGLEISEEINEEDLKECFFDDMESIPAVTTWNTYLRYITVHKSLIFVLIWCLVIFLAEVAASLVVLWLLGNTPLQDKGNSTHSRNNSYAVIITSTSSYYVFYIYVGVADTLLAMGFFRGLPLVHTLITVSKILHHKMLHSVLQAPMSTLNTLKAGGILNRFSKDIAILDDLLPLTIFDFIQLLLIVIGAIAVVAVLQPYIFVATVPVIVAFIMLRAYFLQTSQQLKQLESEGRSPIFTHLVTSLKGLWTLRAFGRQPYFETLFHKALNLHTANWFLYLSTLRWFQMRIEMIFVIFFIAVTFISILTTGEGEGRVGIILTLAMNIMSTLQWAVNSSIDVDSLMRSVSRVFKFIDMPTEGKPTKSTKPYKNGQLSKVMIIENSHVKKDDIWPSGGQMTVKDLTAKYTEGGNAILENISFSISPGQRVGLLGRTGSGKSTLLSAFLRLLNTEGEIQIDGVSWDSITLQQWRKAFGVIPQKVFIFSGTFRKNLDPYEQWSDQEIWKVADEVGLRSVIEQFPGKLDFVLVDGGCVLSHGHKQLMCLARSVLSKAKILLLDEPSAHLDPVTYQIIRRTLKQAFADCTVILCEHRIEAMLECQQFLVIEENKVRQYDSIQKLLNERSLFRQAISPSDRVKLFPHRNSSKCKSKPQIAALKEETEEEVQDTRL

Compound	EC50	Max. Activity
CC1(C)C[C@@H]2CN1c1nc(-n3ccc(OCCCC4(C(F)(F)F)CC4)n3)ccc1C(=O)NS(=O)(=O)c1cccc(n1)NCCO2 (single isomer, unassigned) [Compound 159, 12,12-dimethyl-8-(3-{3-[1-(trifluoromethyl)cyclopropyl]propoxy}-1H-pyrazol-1-yl)-15-oxa-2λ^6-thia-3,9,11,18,23-pentaazatetracyclo[17.3.1.111,14.05,10]tetracosa-1(23),5,7,9,19,21-hexaene-2,2,4-trione]	> 3000 nM	+ (+ is <30%)
CC1(C)CC[C@H]2CCCNc3cccc(n3)S(=O)(=O)NC(=O)c3ccc(-n4ccc(OCCC5(C(F)(F)F)CC5)n4)nc3N21 [Compound 34, (15R)-12,12-dimethyl-8-(3-{2-[1-(trifluoromethyl)cyclopropyl]ethoxy}-1H-pyrazol-1-yl)-2λ^6-thia-3,9,11,19,24-pentaazatetracyclo[18.3.1.05,10.011,15]tetracosa-1(23),5,7,9,20(24),21-hexaene-2,2,4-trione]	< 1000 nM	+++ (+++ is >60%)
CC1(C)CC[C@H]2CCCOc3cccc(c3)S(=O)(=O)NC(=O)c3ccc(-n4ccc(OCCC5(C(F)(F)F)CC5)n4)nc3N21 (single isomer, unassigned) [Compound 7, 12,12-dimethyl-8-(3-{2-[1-(trifluoromethyl)cyclopropyl]ethoxy}-1H-pyrazol-1-yl)-19-oxa-2λ^6-thia-3,9,11-triazatetracyclo[18.3.1.05,10.011,15]tetracosa-1(24),5(10),6,8,20,22-hexaene-2,2,4-trione]	< 1000 nM	++ (++ is 30-60%)
CC(C)(C)CCC1CCN(c2ccc3c(n2)N2C[C@H](CCCn4ccc(n4)S(=O)(=O)NC3=O)CC2(C)C)C1=O (stereo in doubt) [Compound 184, 4-[3-(3,3-dimethylbutyl)-2-oxopyrrolidin-1-yl]-20,20-dimethyl-10λ^6-thia-1,3,9,14,22-pentaazatetracyclo[16.2.1.111,14.02,7]docosa-2,4,6,11(22),12-pentaene-8,10,10-trione]	1000 to 3000 nM	+ (+ is <30%)
CC(C)(C)COc1ccn(-c2ccc3c(n2)N2C[C@H](CCNc4cccc(n4)S(=O)(=O)NC3=O)CC2(C)C)n1 (single isomer, unassigned) [Compound 3, 11-[3-(2,2-dimethylpropoxy)-1H-pyrazol-1-yl]-7,7-dimethyl-17λ^6-thia-2,8,10,16,22-pentaazatetracyclo[16.3.1.15,8.09,14]tricosa-1(21),9(14),10,12,18(22),19-hexaene-15,17,17-trione]	< 1000 nM	+++ (+++ is >60%)
CC1(C)C[C@H]2CCCn3ccc(n3)S(=O)(=O)NC(=O)c3ccc(-n4ccc(OCCC5C6(CC6)C56CC6)n4)nc3N1C2 [Compound 186, (18R)-4-[3-(2-{dispiro[2.0.2.1]heptan-7-yl}ethoxy)-1H-pyrazol-1-yl]-20,20-dimethyl-10λ^6-thia-1,3,9,14,22-pentaazatetracyclo[16.2.1.111,14.02,7]docosa-2,4,6,11(22),12-pentaene-8,10,10-trione]	< 1000 nM	+ (+ is <30%)
CC1(C)C[C@@H]2CCCNc3cccc(n3)S(=O)(=O)NC(=O)c3ccc(N4CC[C@H](OCCC5C6(CC6)C56CC6)C4=O)nc3N1C2 (single isomer, unassigned) [Compound 179]	< 1000 nM	++ (++ is 30-60%)
CC1(C)C[C@H]2CCCCn3ccc(n3)S(=O)(=O)NC(=O)c3ccc(-n4ccc(OCCCC5(C(F)(F)F)CC5)n4)nc3N1C2 (single isomer, unassigned) [Compound 277, 21,21-dimethyl-4-(3-{3-[1-(trifluoromethyl)cyclopropyl]propoxy}-1H-pyrazol-1-yl)-10λ^6-thia-1,3,9,14,23-pentaazatetracyclo[17.2.1.111,14.02,7]tricosa-2,4,6,11(23),12-pentaene-8,10,10-trione]	> 3000 nM	+ (+ is <30%)
Cc1c2cnn1CCCC[C@H]1CN(c3nc(-n4ccc(OCCC5(C(F)(F)F)CC5)n4)ccc3C(=O)NS2(=O)=O)C(C)(C)C1 (single isomer, unassigned) [Compound 81, 21,21,23-trimethyl-4-(3-{2-[1-(trifluoromethyl)cyclopropyl]ethoxy}-1H-pyrazol-1-yl)-10λ^6-thia-1,3,9,13,14-pentaazatetracyclo[17.2.1.111,14.02,7]tricosa-2,4,6,11(23),12-pentaene-8,10,10-trione]	< 1000 nM	++ (++ is 30-60%)
CC1(C)C[C@@H]2CCCNc3cccc(n3)S(=O)(=O)NC(=O)c3ccc(N4CC[C@H](OCC56CC7CC(CC(C7)C5)C6)C4=O)nc3N1C2 (single isomer, unassigned) [Compound 244]	< 1000 nM	++ (++ is 30-60%)
CC1(C)C[C@@H]2CCCNc3cccc(n3)S(=O)(=O)NC(=O)c3ccc(N4CC5CCCCN5C4=O)nc3N1C2 (stereo partly drawn) [Compound 213, (14S)-12,12-dimethyl-8-{3-oxo-octahydroimidazo[1,5-a]pyridin-2-yl}-2λ^6-thia-3,9,11,18,23-pentaazatetracyclo[17.3.1.111,14.05,10]tetracosa-1(23),5(10),6,8,19,21-hexaene-2,2,4-trione]	> 3000 nM	+ (+ is <30%)
CC1(C)C[C@H]2CCCNc3cccc(n3)S(=O)(=O)NC(=O)c3ccc(-n4ccc(OCC5C6(CC6)C56CC6)n4)nc3N1C2 (single isomer, unassigned) [Compound 106, 8-[3-({dispiro[2.0.2.1]heptan-7-yl}methoxy)-1H-pyrazol-1-yl]-12,12-dimethyl-2λ^6-thia-3,9,11,18,23-pentaazatetracyclo[17.3.1.111,14.05,10]tetracosa-1(22),5,7,9,19(23),20-hexaene-2,2,4-trione]	< 1000 nM	+++ (+++ is >60%)
CC1(C)CC2CCCNc3cccc(n3)S(=N)(=O)NC(=O)c3ccc(-n4ccc(OCCC5(C(F)(F)F)CC5)n4)nc3N1C2 (stereo not drawn) [Compound 263, 2-imino-12,12-dimethyl-8-(3-{2-[1-(trifluoromethyl)cyclopropyl]ethoxy}-1H-pyrazol-1-yl)-2λ^6-thia-3,9,11,18,23-pentaazatetracyclo[17.3.1.111,14.05,10]tetracosa-1(23),5,7,9,19,21-hexaene-2,4-dione]	< 1000 nM	++ (++ is 30-60%)
CN1CCCCC2CN(c3nc(-n4ccc(OCCC5(C(F)(F)F)CC5)n4)ccc3C(=O)NS(=O)(=O)c3ccc1nc3)C(C)(C)C2 (stereo not drawn) [Compound 132, 12,12,19-trimethyl-8-(3-{2-[1-(trifluoromethyl)cyclopropyl]ethoxy}-1H-pyrazol-1-yl)-2λ^6-thia-3,9,11,19,21-pentaazatetracyclo[18.2.2.111,14.05,10]pentacosa-1(23),5,7,9,20(24),21-hexaene-2,2,4-trione]	< 1000 nM	++ (++ is 30-60%)
CN1CCC[C@H]2CN(c3nc(-n4ccc(OCCC5(C(F)(F)F)CC5)n4)ccc3C(=O)NS(=O)(=O)c3cccc1n3)C(C)(C)C2 (single isomer, unassigned) [Compound 138, 12,12,18-Trimethyl-8-(3-{2-[1-(trifluoromethyl)cyclopropyl]ethoxy}-1H-pyrazol-1-yl)-2λ^6-thia-3,9,11,18,23-pentaazatetracyclo[17.3.1.111,14.05,10]tetracosa-1(23),5(10),6,8,19,21-hexaene-2,2,4-trione]	> 3000 nM	+ (+ is <30%)
